Source: the NIST ThermoML archive (doi:10.1016/j.jct.2016.10.023)

Test: xn = mol fraction of the nth substance listed
Settings: Constant-volume piezometry

CCCCC [pentane] + CCCO
Settings	mass density [kg/m3]
483.15 K, 3273 kPa, Gas, x1 = 0.5	89.08
483.15 K, 3361 kPa, Gas, x1 = 0.5	96.03
483.15 K, 3529 kPa, Gas, x1 = 0.8	106.6
483.15 K, 3605 kPa, Fluid (supercritical or subcritical phases), x1 = 0.9	123.58
483.15 K, 3709 kPa, Fluid (supercritical or subcritical phases), x1 = 0.9	134.38
483.15 K, 3900 kPa, Fluid (supercritical or subcritical phases), x1 = 0.9	164.27
483.15 K, 3917 kPa, Fluid (supercritical or subcritical phases), x1 = 0.8	140.58
483.15 K, 3927 kPa, Liquid, x1 = 0.5	373.66
483.15 K, 3981 kPa, Fluid (supercritical or subcritical phases), x1 = 0.8	156.35
483.15 K, 4002 kPa, Fluid (supercritical or subcritical phases), x1 = 0.9	189.82
483.15 K, 4026 kPa, Liquid, x1 = 0.5	384.78
483.15 K, 4033 kPa, Fluid (supercritical or subcritical phases), x1 = 0.8	170.11
483.15 K, 4049 kPa, Fluid (supercritical or subcritical phases), x1 = 0.9	202.77
483.15 K, 4053 kPa, Fluid (supercritical or subcritical phases), x1 = 0.8	176.37
483.15 K, 4071 kPa, Fluid (supercritical or subcritical phases), x1 = 0.8	181.18
483.15 K, 4106 kPa, Fluid (supercritical or subcritical phases), x1 = 0.8	193.54
483.15 K, 4109 kPa, Fluid (supercritical or subcritical phases), x1 = 0.9	221.12
483.15 K, 4156 kPa, Fluid (supercritical or subcritical phases), x1 = 0.9	233.52
483.15 K, 4162 kPa, Fluid (supercritical or subcritical phases), x1 = 0.8	214.27
483.15 K, 4171 kPa, Fluid (supercritical or subcritical phases), x1 = 0.9	236.99
483.15 K, 4179 kPa, Fluid (supercritical or subcritical phases), x1 = 0.8	220.05
483.15 K, 4189 kPa, Fluid (supercritical or subcritical phases), x1 = 0.9	241.4
483.15 K, 4200 kPa, Fluid (supercritical or subcritical phases), x1 = 0.9	244.72
483.15 K, 4211 kPa, Fluid (supercritical or subcritical phases), x1 = 0.8	235.17
483.15 K, 4239 kPa, Fluid (supercritical or subcritical phases), x1 = 0.8	245.83
483.15 K, 4277 kPa, Fluid (supercritical or subcritical phases), x1 = 0.8	259.08
483.15 K, 4309 kPa, Fluid (supercritical or subcritical phases), x1 = 0.9	282.57
483.15 K, 4317 kPa, Fluid (supercritical or subcritical phases), x1 = 0.8	273.08
483.15 K, 4417 kPa, Fluid (supercritical or subcritical phases), x1 = 0.8	288.96
483.15 K, 4435 kPa, Fluid (supercritical or subcritical phases), x1 = 0.9	302.29
483.15 K, 4437 kPa, Liquid, x1 = 0.5	398.98
483.15 K, 4493 kPa, Fluid (supercritical or subcritical phases), x1 = 0.8	299.8
483.15 K, 4551 kPa, Fluid (supercritical or subcritical phases), x1 = 0.9	312.96
483.15 K, 4646 kPa, Fluid (supercritical or subcritical phases), x1 = 0.8	316.01
483.15 K, 4807 kPa, Liquid, x1 = 0.2	510.78
483.15 K, 4877 kPa, Fluid (supercritical or subcritical phases), x1 = 0.9	334.72
483.15 K, 4915 kPa, Fluid (supercritical or subcritical phases), x1 = 0.8	334.54
483.15 K, 5017 kPa, Liquid, x1 = 0.5	418.13
483.15 K, 5178 kPa, Fluid (supercritical or subcritical phases), x1 = 0.8	346.09
483.15 K, 5428 kPa, Fluid (supercritical or subcritical phases), x1 = 0.9	354.86
483.15 K, 5641 kPa, Fluid (supercritical or subcritical phases), x1 = 0.8	362.7
483.15 K, 6347 kPa, Liquid, x1 = 0.5	441.94
483.15 K, 7296 kPa, Liquid, x1 = 0.5	452.28
483.15 K, 8060 kPa, Liquid, x1 = 0.5	459.37
483.15 K, 8482 kPa, Fluid (supercritical or subcritical phases), x1 = 0.9	408.19
483.15 K, 8984 kPa, Fluid (supercritical or subcritical phases), x1 = 0.8	419.13
483.15 K, 9371 kPa, Liquid, x1 = 0.5	469.23
483.15 K, 10899 kPa, Liquid, x1 = 0.2	548.38
483.15 K, 16393 kPa, Fluid (supercritical or subcritical phases), x1 = 0.8	467.78
483.15 K, 16725 kPa, Liquid, x1 = 0.5	507.77
483.15 K, 19754 kPa, Liquid, x1 = 0.5	520.6
483.15 K, 21392 kPa, Liquid, x1 = 0.2	582.82
483.15 K, 24098 kPa, Fluid (supercritical or subcritical phases), x1 = 0.8	497.3
483.15 K, 27685 kPa, Liquid, x1 = 0.2	596.46
483.15 K, 28654 kPa, Liquid, x1 = 0.5	549.54
483.15 K, 34153 kPa, Fluid (supercritical or subcritical phases), x1 = 0.8	521.9
483.15 K, 37683 kPa, Liquid, x1 = 0.2	615.9
484.15 K, 3395 kPa, Gas, x1 = 0.5	96.03
485.15 K, 3427 kPa, Gas, x1 = 0.5	96.02
486.15 K, 3456 kPa, Gas, x1 = 0.5	96.02
487.15 K, 3750 kPa, Gas, x1 = 0.5	122.1
487.15 K, 4130 kPa, Liquid, x1 = 0.5	345.19
488.15 K, 3498 kPa, Gas, x1 = 0.5	96.01
488.15 K, 3783 kPa, Gas, x1 = 0.5	122.1
488.15 K, 4237 kPa, Liquid, x1 = 0.5	345.17
489.15 K, 3815 kPa, Gas, x1 = 0.5	122.09
489.15 K, 4203 kPa, Liquid, x1 = 0.5	325.83
490.15 K, 3453 kPa, Liquid, x1 = 0.2	471.25
491.15 K, 4012 kPa, Gas, x1 = 0.5	144.34

mass density [kg/m3], Liquid
Settings	486.15 K	488.75 K	489.55 K	489.85 K	491.65 K
x1 = 0.2	–	–	–	471.25	–
x1 = 0.5	345.21	325.84	320.54	–	299.15
